Assay results as given in patent US8785460B2, “Tricyclic compounds and use thereof” (Takeda Pharmaceutical Company Limited, priority 2008, dated 2014).

How the values were obtained:
human CRF1 receptor = target: T1, human CRF1 receptor (Homo sapiens, UniProt P34998); test: Measurement of CRF Binding Inhibitory Rate (receptor binding experiment with 125I-CRF); conditions: human CRF1 receptor expressing CHO cellular membrane fraction, 50 pM 125I-CRF, room temperature 1.5 hr, 0.05 nM to 10 μM of compound; read-out: IC50 values (CRF binding inhibition)
T1 construct: expressed in transfected cells; host or cells: CHO cells (membrane fraction)
T1 sequence (P34998 24-415): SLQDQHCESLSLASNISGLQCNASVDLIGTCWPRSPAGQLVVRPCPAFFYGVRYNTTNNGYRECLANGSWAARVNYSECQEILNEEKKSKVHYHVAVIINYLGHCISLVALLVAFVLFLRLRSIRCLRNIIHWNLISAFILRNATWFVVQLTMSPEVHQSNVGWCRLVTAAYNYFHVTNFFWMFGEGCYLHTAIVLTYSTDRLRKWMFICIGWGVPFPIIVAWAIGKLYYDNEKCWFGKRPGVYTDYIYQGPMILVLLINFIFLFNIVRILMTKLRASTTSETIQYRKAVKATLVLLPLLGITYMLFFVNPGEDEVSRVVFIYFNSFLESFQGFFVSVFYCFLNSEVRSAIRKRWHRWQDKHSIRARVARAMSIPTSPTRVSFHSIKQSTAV

| Compound | melting point [°C] | IC50 (human CRF1 receptor) [nM] |
| --- | --- | --- |
| CCC(CC)c1ccc(Cl)c2nc3n(c12)CCCCN3c1c[n+]([O-])c(N(C)C)cc1C [Example 26, 5-[10-Chloro-7-(1-ethylpropyl)-2,3,4,5-tetrahydro-1H-[1,3]diazepino[1,2-a]benzimidazol-1-yl]-N,N,4-trimethylpyridin-2-amine 1-oxide] | 142 to 143 | < 1000 |
| CCC(CC)c1ccc(Cl)c2nc3n(c12)CCCCN3c1ccc(OC)nc1OC [Example 28, 10-Chloro-1-(2,6-dimethoxypyridin-3-yl)-7-(1-ethylpropyl)-2,3,4,5-tetrahydro-1H-[1,3]diazepino[1,2-a]benzimidazole] | 85 to 88 | < 1000 |
| CCC(CC)c1ccc(Cl)c2nc3n(c12)CCCCN3c1cnc(N2CCCC2)cc1C [Example 29, 10-Chloro-7-(1-ethylpropyl)-1-(4-methyl-6-pyrrolidin-1-ylpyridin-3-yl)-2,3,4,5-tetrahydro-1H-[1,3]diazepino[1,2-a]benzimidazole] | 160 to 161 | < 1000 |
| CCC(CC)c1ccc(Cl)c2nc3n(c12)CCCCN3c1cnc(OC)cc1C [Example 30, 10-Chloro-7-(1-ethylpropyl)-1-(6-methoxy-4-methylpyridin-3-yl)-2,3,4,5-tetrahydro-1H-[1,3]diazepino[1,2-a]benzimidazole] | 112 to 114 | < 1000 |
| CCC(CC)c1ccc(Cl)c2nc3n(c12)CCCCN3c1ccc(C)cc1Br [Example 31, 1-(2-Bromo-4-methylphenyl)-10-chloro-7-(1-ethylpropyl)-2,3,4,5-tetrahydro-1H-[1,3]diazepino[1,2-a]benzimidazole] | 152 to 155 | < 1000 |
| CCC(CC)c1ccc(Cl)c2nc3n(c12)CCCCN3c1ccc(C)cc1C#N [Example 36, 2-[10-Chloro-7-(1-ethylpropyl)-2,3,4,5-tetrahydro-1H-[1,3]diazepino[1,2-a]benzimidazol-1-yl]-5-methylbenzonitrile] | 176 to 180 | < 1000 |
| CCC(CC)c1cccc2nc3n(c12)CCCCN3c1ccc(OC)cc1OC [Example 37, 1-(2,4-Dimethoxyphenyl)-7-(1-ethylpropyl)-2,3,4,5-tetrahydro-1H-[1,3]diazepino[1,2-a]benzimidazole] | 145 to 148 | < 1000 |
| CCC(CC)c1ccc(Cl)c2nc3n(c12)CCCCN3c1ccc(C(F)(F)F)cc1Br [Example 38, 1-[2-Bromo-4-(trifluoromethyl)phenyl]-10-chloro-7-(1-ethylpropyl)-2,3,4,5-tetrahydro-1H-[1,3]diazepino[1,2-a]benzimidazole] | 158 to 160 | < 1000 |
| CCC(CC)c1ccc(Cl)c2nc3n(c12)CCCCN3c1ccc(OC(F)(F)F)cc1Br [Example 39, 1-[2-Bromo-4-(trifluoromethoxy)phenyl]-10-chloro-7-(1-ethylpropyl)-2,3,4,5-tetrahydro-1H-[1,3]diazepino[1,2-a]benzimidazole] | 114 to 117 | < 1000 |
| CCC(CC)c1ccc(Cl)c2nc3n(c12)CCCCN3c1ccc(SC)cc1C [Example 44, 10-Chloro-7-(1-ethylpropyl)-1-[2-methyl-4-(methylthio)phenyl]-2,3,4,5-tetrahydro-1H-[1,3]diazepino[1,2-a]benzimidazole] | 113 to 115 | < 1000 |
| CCC(CC)c1ccc(Cl)c2nc3n(c12)CCCCN3c1ccc([S+](C)[O-])cc1C (centres unmarked) [Example 45, 10-Chloro-7-(1-ethylpropyl)-1-[2-methyl-4-(methylsulfinyl)phenyl]-2,3,4,5-tetrahydro-1H-[1,3]diazepino[1,2-a]benzimidazole] | 189 to 190 | < 1000 |
| CCC(CC)c1ccc(Cl)c2nc3n(c12)CCCCN3c1ccc(S(C)(=O)=O)cc1C [Example 46, 10-Chloro-7-(1-ethylpropyl)-1-[2-methyl-4-(methylsulfonyl)phenyl]-2,3,4,5-tetrahydro-1H-[1,3]diazepino[1,2-a]benzimidazole] | 170 to 171 | < 1000 |
| CCC(CC)c1ccc(Cl)c2nc3n(c12)CCCCN3c1ccc(C(N)=O)cc1C [Example 48, 4-[10-Chloro-7-(1-ethylpropyl)-2,3,4,5-tetrahydro-1H-[1,3]diazepino[1,2-a]benzimidazol-1-yl]-3-methylbenzamide] | 185 to 186 | < 1000 |
| CCC(CC)c1ccc(Cl)c2nc3n(c12)CCCCN3c1ccc(C(=O)NC)cc1C [Example 49, 4-[10-Chloro-7-(1-ethylpropyl)-2,3,4,5-tetrahydro-1H-[1,3]diazepino[1,2-a]benzimidazol-1-yl]-N,3-dimethylbenzamide] | 127 to 128 | < 1000 |
| CCC(CC)c1ccc(Cl)c2nc3n(c12)CCCCN3c1ccc(C(=O)N(C)C)cc1C [Example 50, 4-[10-Chloro-7-(1-ethylpropyl)-2,3,4,5-tetrahydro-1H-[1,3]diazepino[1,2-a]benzimidazol-1-yl]-N,N,3-trimethylbenzamide] | 113 to 114 | < 1000 |
| CCC(CC)c1ccc(Cl)c2nc3n(c12)CCCCN3c1ccc(N(C)C)cc1C [Example 51, 4-[10-Chloro-7-(1-ethylpropyl)-2,3,4,5-tetrahydro-1H-[1,3]diazepino[1,2-a]benzimidazol-1-yl]-N,N,3-trimethylaniline] | 174 to 175 | < 1000 |
| CCC(CC)c1ccc(Cl)c2nc3n(c12)CCCCN3c1ccc(N(C)C)cc1OC(F)(F)F [Example 53, 4-[10-Chloro-7-(1-ethylpropyl)-2,3,4,5-tetrahydro-1H-[1,3]diazepino[1,2-a]benzimidazol-1-yl]-N,N-dimethyl-3-(trifluoromethoxy)aniline] | 158 to 159 | < 1000 |
| CCC(CC)c1ccc(Cl)c2nc3n(c12)CCCCN3c1cccc2c1OC(F)(F)O2 [Example 54, 10-Chloro-1-(2,2-difluoro-1,3-benzodioxol-4-yl)-7-(1-ethylpropyl)-2,3,4,5-tetrahydro-1H-[1,3]diazepino[1,2-a]benzimidazole] | 156 to 158 | < 1000 |
| CCC(CC)c1ccc(Cl)c2nc3n(c12)CCCCN3c1c(C)cc(Cl)cc1OC [Example 56] | 196 to 198 | < 1000 |
| CCC(CC)c1ccc(Cl)c2nc3n(c12)CCCCN3c1cnc(C#N)cc1C [Example 59, 5-[10-Chloro-7-(1-ethylpropyl)-2,3,4,5-tetrahydro-1H-[1,3]diazepino[1,2-a]benzimidazol-1-yl]-4-methylpyridine-2-carbonitrile] | 177 to 178 | < 1000 |
| CCC(CC)c1ccc(Cl)c2nc3n(c12)CCCCN3c1cnc(C(C)=O)cc1C [Example 60, 1-{5-[10-Chloro-7-(1-ethylpropyl)-2,3,4,5-tetrahydro-1H-[1,3]diazepino[1,2-a]benzimidazol-1-yl]-4-methylpyridin-2-yl}ethanone] | 144 to 145 | < 1000 |
| CCC(CC)c1ccc(Cl)c2nc3n(c12)CCCCN3c1cnc(C(N)=O)cc1C [Example 61, 5-[10-Chloro-7-(1-ethylpropyl)-2,3,4,5-tetrahydro-1H-[1,3]diazepino[1,2-a]benzimidazol-1-yl]-4-methylpyridine-2-carboxamide] | 267 to 269 | < 1000 |
| CCC(CC)c1ccc(Cl)c2nc3n(c12)CCCCN3c1ncc(Cl)cc1Cl [Example 62, 10-Chloro-1-(3,5-dichloropyridin-2-yl)-7-(1-ethylpropyl)-2,3,4,5-tetrahydro-1H-[1,3]diazepino[1,2-a]benzimidazole] | 175 to 176 | < 1000 |
| CCC(CC)c1ccc(Cl)c2nc3n(c12)CCCCN3c1ncc(C(F)(F)F)cc1Cl [Example 63, 10-Chloro-1-[3-chloro-5-(trifluoromethyl)pyridin-2-yl]-7-(1-ethylpropyl)-2,3,4,5-tetrahydro-1H-[1,3]diazepino[1,2-a]benzimidazole] | 108 to 110 | < 1000 |
| CCC(CC)c1ccc(Cl)c2nc3n(c12)CCCCN3c1ncc([N+](=O)[O-])cc1C [Example 64, 10-Chloro-7-(1-ethylpropyl)-1-(3-methyl-5-nitropyridin-2-yl)-2,3,4,5-tetrahydro-1H-[1,3]diazepino[1,2-a]benzimidazole] | 204 to 205 | < 1000 |
| CCC(CC)c1ccc(Cl)c2nc3n(c12)CCCCN3c1ncc(N(C)C)cc1C [Example 66, 6-[10-Chloro-7-(1-ethylpropyl)-2,3,4,5-tetrahydro-1H-[1,3]diazepino[1,2-a]benzimidazol-1-yl]-N,N,5-trimethylpyridin-3-amine] | 188 to 190 | < 1000 |
| CCC(O)c1cccc2nc3n(c12)CCCCN3c1ccc(Cl)cc1Cl (centres unmarked) [Example 68, 1-[1-(2,4-Dichlorophenyl)-2,3,4,5-tetrahydro-1H-[1,3]diazepino[1,2-a]benzimidazol-7-yl]propan-1-ol] | 241 to 243 | < 1000 |
| CCN(CC)c1cccc2nc3n(c12)CC(O)CCN3c1ccc(Cl)cc1Cl (centres unmarked) [Example 70, 1-(2,4-Dichlorophenyl)-7-(diethylamino)-2,3,4,5-tetrahydro-1H-[1,3]diazepino[1,2-a]benzimidazol-4-ol] | 207 to 208 | < 1000 |
